In patent publication US8835466B2, “Synthesis and uses of pyroglutamic acid derivatives” (Prodimed, S.A., priority 2006, dated 2014):

System: ASB XIV cells (pulmonary squamous cell carcinoma)
Assay: Effect of isomers and BLAS on in vivo tumour growth, ASB XIV tumours (Example 8)
Design: species or system Balb/c mice
Conditions: for Inhibition of the in vivo growth of the lung carcinoma ASB XIV, in words: 260 ng i.p. days 6, 7 and 14; for Tumour surface, overall values (Mean) / Tumour surface, overall values (Median) / Tumour volume, overall values (Mean) / Tumour volume, overall values (Median): 260 ng/mouse i.p. days 6, 7 and 14; for Differences in ASB XIV tumour growth rate vs. placebo, statistical significance p (Mann-Whitney U test): either in surface or volume, all days scored after the day 26th
Description: This assay was made in order to compare the effect of each stereoisomer on in vivo tumour growth in mice with the effect of the mixture of all of them challenged with ASB XIV tumours. The stereoisomers assayed were the same as in example 7 above plus a mixture of all of them (BLAS). The equipment (when needed), reagents, dose, vehicle and route and volume of administration were the same as in example 7.
ASB XIV is a pulmonary squamous cell carcinoma originated in Balb/c mouse strain, and therefore syngeneic in mice with Balb/c genetic background.
ASB XIV cells (CLS, Eppelheim, Germany) were maintained in vitro by serial passages every 3-4 days. Cultures were performed with RPMI medium medium (RPMI, 10% foetal calf serum, 2 mM L-glutamine, non essential aminoacids, 1 mM sodium pyruvate, 20 mM HEPES, 80 μg/mL gentamycin; all of them were purchased from Sigma, St. Louis, Mo., USA) by seeding 5×10^6 cells onto 75 cm^2 culture flasks. Tumour cells collected from 48 hour cultures upon trypsinization (Sigma, St. Louis, Mo., USA) were used as source of ASB XIV cells in the present example.
• BLAS (mixture of isomers 1, 2, 3 and 4) at a concentration of 65 μg/mL in sterile physiological saline. Isomer 1 (9b) at a concentration of 65 μg/mL in sterile physiological saline. • Isomer 2 (9c) at a concentration of 65 μg/mL in sterile physiological saline. • Isomer 3 (9a) at a concentration of 65 μg/mL in sterile physiological saline. • Isomer 4 (9d) at a concentration of 65 μg/mL in sterile physiological saline. Placebo
Tumours were established by subcutaneous inoculation in the right hind flank. Mice (Balb/c) were inoculated with 0.2 mL containing 2×10^5 viable ASB XIV cells. The day of subcutaneous inoculation will be considered Day 0 of the test.
Mice were observed daily and the tumour size recorded twice a week. This was carried out by measuring two perpendicular diameters (d1/d2) with a calliper. These measures were used to obtain both tumour surface and volume: Tumour surface=d1×d2(mm^2) Tumour volume=d1×d2^2×½(mm^3)
Results were expressed as single values and/or as the mean±SD or median from each experimental group.
A case-control study was performed with treated and control mice in order to determine whether differences between BLAS or each diferent stereoisomer and administration of placebo were present. […] The U-test of Mann Withney was chosen for being one of the better known non-parametrical tests, anyway, results for this test are equivalent both to those of Wilcoxon's sum of ranges and Kruskal-Wallis two-groups test.
Due to the high dispersion of data, outlayers (animals beyond percentile 10 or above percentile 90 for tumour surface at day 33) were excluded of the study.

[1] = day 12 after tumour inoculation
[2] = day 15 after tumour inoculation
[3] = day 19 after tumour inoculation
[4] = day 22 after tumour inoculation
[5] = day 26 after tumour inoculation
[6] = day 29 after tumour inoculation
[7] = day 33 after tumour inoculation

Compound: Br.N[C@]1(C[n+]2ccccc2)C[C@@H](C(=O)O)NC1=O.[Br-] (single isomer, unassigned; isomer 3) [isomer 3, 3S,5S-1-(3-Amino-5-carboxy-2-oxopyrrolidin-3-ylmethyl)pyridinium bromide hidrobromide]
- Inhibition of the in vivo growth of the lung carcinoma ASB XIV, in words: inhibit the in vivo growth
- Tumour surface, overall values (Mean) (day 0 after tumour inoculation): 0 mm^2
- Tumour surface, overall values (Median) (day 0 after tumour inoculation): 0 mm^2
- Tumour volume, overall values (Mean) (day 0 after tumour inoculation): 0 mm^3
- Tumour volume, overall values (Median) (day 0 after tumour inoculation): 0 mm^3
- Tumour surface, overall values (Mean) (day 8 after tumour inoculation): 0 mm^2
- Tumour surface, overall values (Median) (day 8 after tumour inoculation): 0 mm^2
- Tumour volume, overall values (Mean) (day 8 after tumour inoculation): 0 mm^3
- Tumour volume, overall values (Median) (day 8 after tumour inoculation): 0 mm^3
- Tumour surface, overall values (Mean) [1]: 0.29 mm^2
- Tumour surface, overall values (Median) [1]: 0 mm^2
- Tumour volume, overall values (Mean) [1]: 0.44 mm^3
- Tumour volume, overall values (Median) [1]: 0 mm^3
- Tumour surface, overall values (Mean) [2]: 2.81 mm^2
- Tumour surface, overall values (Median) [2]: 0 mm^2
- Tumour volume, overall values (Mean) [2]: 6.31 mm^3
- Tumour volume, overall values (Median) [2]: 0 mm^3
- Tumour surface, overall values (Mean) [3]: 15.16 mm^2
- Tumour surface, overall values (Median) [3]: 9 mm^2
- Tumour volume, overall values (Mean) [3]: 44.13 mm^3
- Tumour volume, overall values (Median) [3]: 13.5 mm^3
- Tumour surface, overall values (Mean) [4]: 33.16 mm^2
- Tumour surface, overall values (Median) [4]: 25 mm^2
- Tumour volume, overall values (Mean) [4]: 116.65 mm^3
- Tumour volume, overall values (Median) [4]: 62.5 mm^3
- Tumour surface, overall values (Mean) [5]: 68.67 mm^2
- Tumour surface, overall values (Median) [5]: 64 mm^2
- Tumour volume, overall values (Mean) [5]: 337.18 mm^3
- Tumour volume, overall values (Median) [5]: 256 mm^3
- Tumour surface, overall values (Mean) [6]: 94.61 mm^2
- Tumour surface, overall values (Median) [6]: 99 mm^2
- Tumour volume, overall values (Mean) [6]: 529.37 mm^3
- Tumour volume, overall values (Median) [6]: 445.5 mm^3
- Tumour surface, overall values (Mean) [7]: 131.35 mm^2
- Tumour surface, overall values (Median) [7]: 140 mm^2
- Tumour volume, overall values (Mean) [7]: 848.87 mm^3
- Tumour volume, overall values (Median) [7]: 700 mm^3
- Differences in ASB XIV tumour growth rate vs. placebo, statistical significance p (Mann-Whitney U test): < 0.05

Compound: Br.N[C@@]1(C[n+]2ccccc2)C[C@@H](C(=O)O)NC1=O.[Br-] (single isomer, unassigned; isomer 1) [isomer 1, 3R,5S-1-(3-Amino-5-carboxy-2-oxopyrrolidin-3-ylmethyl)pyridinium bromide hidrobromide]
- Tumour surface, overall values (Mean) (day 0 after tumour inoculation): 0 mm^2
- Tumour surface, overall values (Median) (day 0 after tumour inoculation): 0 mm^2
- Tumour volume, overall values (Mean) (day 0 after tumour inoculation): 0 mm^3
- Tumour volume, overall values (Median) (day 0 after tumour inoculation): 0 mm^3
- Tumour surface, overall values (Mean) (day 8 after tumour inoculation): 0 mm^2
- Tumour surface, overall values (Median) (day 8 after tumour inoculation): 0 mm^2
- Tumour volume, overall values (Mean) (day 8 after tumour inoculation): 0 mm^3
- Tumour volume, overall values (Median) (day 8 after tumour inoculation): 0 mm^3
- Tumour surface, overall values (Mean) [1]: 0.32 mm^2
- Tumour surface, overall values (Median) [1]: 0 mm^2
- Tumour volume, overall values (Mean) [1]: 0.45 mm^3
- Tumour volume, overall values (Median) [1]: 0 mm^3
- Tumour surface, overall values (Mean) [2]: 3.45 mm^2
- Tumour surface, overall values (Median) [2]: 0 mm^2
- Tumour volume, overall values (Mean) [2]: 5.34 mm^3
- Tumour volume, overall values (Median) [2]: 0 mm^3
- Tumour surface, overall values (Mean) [3]: 19.65 mm^2
- Tumour surface, overall values (Median) [3]: 16 mm^2
- Tumour volume, overall values (Mean) [3]: 53.37 mm^3
- Tumour volume, overall values (Median) [3]: 32 mm^3
- Tumour surface, overall values (Mean) [4]: 46.81 mm^2
- Tumour volume, overall values (Mean) [4]: 179.79 mm^3
- Tumour surface, overall values (Mean) [5]: 92.52 mm^2
- Tumour surface, overall values (Median) [5]: 72 mm^2
- Tumour volume, overall values (Mean) [5]: 474.10 mm^3
- Tumour volume, overall values (Median) [5]: 288 mm^3
- Tumour surface, overall values (Mean) [6]: 125.16 mm^2
- Tumour surface, overall values (Median) [6]: 110 mm^2
- Tumour volume, overall values (Mean) [6]: 733.26 mm^3
- Tumour volume, overall values (Median) [6]: 550 mm^3
- Tumour surface, overall values (Mean) [7]: 165.65 mm^2
- Tumour surface, overall values (Median) [7]: 154 mm^2
- Tumour volume, overall values (Mean) [7]: 1114.37 mm^3
- Tumour volume, overall values (Median) [7]: 864 mm^3

Compound: Br.N[C@@]1(C[n+]2ccccc2)C[C@H](C(=O)O)NC1=O.[Br-] (single isomer, unassigned; isomer 2) [isomer 2, 3R,5R-1-(3-Amino-5-carboxy-2-oxopyrrolidin-3-ylmethyl)pyridinium bromide hidrobromide]
- Tumour surface, overall values (Mean) (day 0 after tumour inoculation): 0 mm^2
- Tumour surface, overall values (Median) (day 0 after tumour inoculation): 0 mm^2
- Tumour volume, overall values (Mean) (day 0 after tumour inoculation): 0 mm^3
- Tumour volume, overall values (Median) (day 0 after tumour inoculation): 0 mm^3
- Tumour surface, overall values (Mean) (day 8 after tumour inoculation): 0 mm^2
- Tumour surface, overall values (Median) (day 8 after tumour inoculation): 0 mm^2
- Tumour volume, overall values (Mean) (day 8 after tumour inoculation): 0 mm^3
- Tumour volume, overall values (Median) (day 8 after tumour inoculation): 0 mm^3
- Tumour surface, overall values (Mean) [1]: 0.71 mm^2
- Tumour surface, overall values (Median) [1]: 0 mm^2
- Tumour volume, overall values (Mean) [1]: 1 mm^3
- Tumour volume, overall values (Median) [1]: 0 mm^3
- Tumour surface, overall values (Mean) [2]: 6.19 mm^2
- Tumour surface, overall values (Median) [2]: 0 mm^2
- Tumour volume, overall values (Mean) [2]: 12.68 mm^3
- Tumour volume, overall values (Median) [2]: 0 mm^3
- Tumour surface, overall values (Mean) [3]: 29.84 mm^2
- Tumour surface, overall values (Median) [3]: 25 mm^2
- Tumour volume, overall values (Mean) [3]: 102.44 mm^3
- Tumour volume, overall values (Median) [3]: 62.5 mm^3
- Tumour surface, overall values (Mean) [4]: 63.55 mm^2
- Tumour surface, overall values (Median) [4]: 56 mm^2
- Tumour volume, overall values (Mean) [4]: 292.39 mm^3
- Tumour volume, overall values (Median) [4]: 196 mm^3
- Tumour surface, overall values (Mean) [5]: 105.97 mm^2
- Tumour surface, overall values (Median) [5]: 110 mm^2
- Tumour volume, overall values (Mean) [5]: 603.66 mm^3
- Tumour volume, overall values (Median) [5]: 550 mm^3
- Tumour surface, overall values (Mean) [6]: 142.45 mm^2
- Tumour surface, overall values (Median) [6]: 144 mm^2
- Tumour volume, overall values (Mean) [6]: 913.90 mm^3
- Tumour volume, overall values (Median) [6]: 864 mm^3
- Tumour surface, overall values (Mean) [7]: 188.87 mm^2
- Tumour surface, overall values (Median) [7]: 210 mm^2
- Tumour volume, overall values (Mean) [7]: 1377.02 mm^3
- Tumour volume, overall values (Median) [7]: 1436.5 mm^3

Compound: Br.N[C@]1(C[n+]2ccccc2)C[C@H](C(=O)O)NC1=O.[Br-] (single isomer, unassigned; isomer 4) [isomer 4, 3S,5R-1-(3-Amino-5-carboxy-2-oxopyrrolidin-3-ylmethyl)pyridinium bromide hidrobromide]
- Inhibition of the in vivo growth of the lung carcinoma ASB XIV, in words: inhibit the in vivo growth
- Tumour surface, overall values (Mean) (day 0 after tumour inoculation): 0 mm^2
- Tumour surface, overall values (Median) (day 0 after tumour inoculation): 0 mm^2
- Tumour volume, overall values (Mean) (day 0 after tumour inoculation): 0 mm^3
- Tumour volume, overall values (Median) (day 0 after tumour inoculation): 0 mm^3
- Tumour surface, overall values (Mean) (day 8 after tumour inoculation): 0 mm^2
- Tumour surface, overall values (Median) (day 8 after tumour inoculation): 0 mm^2
- Tumour volume, overall values (Mean) (day 8 after tumour inoculation): 0 mm^3
- Tumour volume, overall values (Median) (day 8 after tumour inoculation): 0 mm^3
- Tumour surface, overall values (Mean) [1]: 0.17 mm^2
- Tumour surface, overall values (Median) [1]: 0 mm^2
- Tumour volume, overall values (Mean) [1]: 0.16 mm^3
- Tumour volume, overall values (Median) [1]: 0 mm^3
- Tumour surface, overall values (Mean) [2]: 2.79 mm^2
- Tumour surface, overall values (Median) [2]: 0 mm^2
- Tumour volume, overall values (Mean) [2]: 5.29 mm^3
- Tumour volume, overall values (Median) [2]: 0 mm^3
- Tumour surface, overall values (Mean) [3]: 14.59 mm^2
- Tumour surface, overall values (Median) [3]: 9 mm^2
- Tumour volume, overall values (Mean) [3]: 36.5 mm^3
- Tumour surface, overall values (Mean) [4]: 34.52 mm^2
- Tumour volume, overall values (Mean) [4]: 118.19 mm^3
- Tumour surface, overall values (Mean) [5]: 65.86 mm^2
- Tumour surface, overall values (Median) [5]: 49 mm^2
- Tumour volume, overall values (Mean) [5]: 297.83 mm^3
- Tumour volume, overall values (Median) [5]: 171.5 mm^3
- Tumour surface, overall values (Mean) [6]: 90.28 mm^2
- Tumour surface, overall values (Median) [6]: 81 mm^2
- Tumour volume, overall values (Mean) [6]: 451.55 mm^3
- Tumour volume, overall values (Median) [6]: 364.5 mm^3
- Tumour surface, overall values (Mean) [7]: 123.45 mm^2
- Tumour surface, overall values (Median) [7]: 110 mm^2
- Tumour volume, overall values (Mean) [7]: 700.66 mm^3
- Tumour volume, overall values (Median) [7]: 550 mm^3
- Differences in ASB XIV tumour growth rate vs. placebo, statistical significance p (Mann-Whitney U test): < 0.05
